Laboratory results taken from PubChem BioAssay AID212 (DTP/NCI, 2004).
“And” between values parts separate entries of the source, which are not always exact repeats. Equal values may be shown once. Results filed as inconclusive are left out.

Tested on: BDF1 mice, colon carcinoma 38 sc, T/C %
Test: NCI In Vivo Anticancer Drug Screen. Data for tumor model Colon Carcinoma 38 (subcutaneous) in B6D2F1 (BDF1) mice
Conditions: higher = larger tumour
Procedure, shortened: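 Compound antitumor activity was assessed in mice carrying transplantable tumors. Survival or tumor size was recorded, and each value is the treated-group measurement divided by that of the vehicle-treated control group.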

[1] = endpoint: median tumor weight (est.), dose: 12.5 mg/kg/injection, schedule: Q07DX002 (ip), vehicle: Klucel (hydroxypropylcellulose) (HPC)
[2] = endpoint: median tumor weight (est.), dose: 25.0 mg/kg/injection, schedule: Q07DX002 (ip), vehicle: Klucel (hydroxypropylcellulose) (HPC)
[3] = endpoint: median tumor weight (est.), dose: 50.0 mg/kg/injection, schedule: Q07DX002 (ip), vehicle: Klucel (hydroxypropylcellulose) (HPC)
[4] = endpoint: median tumor weight (est.), dose: 100.0 mg/kg/injection, schedule: Q07DX002 (ip), vehicle: Klucel (hydroxypropylcellulose) (HPC)
[5] = endpoint: median tumor weight (est.), dose: 200.0 mg/kg/injection, schedule: Q07DX002 (ip), vehicle: Klucel (hydroxypropylcellulose) (HPC)
[6] = endpoint: median tumor weight (est.), dose: 50.0 mg/kg/injection, schedule: Q07DX002 (ip), vehicle: saline with Tween-80
[7] = endpoint: median tumor weight (est.), dose: 100.0 mg/kg/injection, schedule: Q07DX002 (ip), vehicle: saline with Tween-80
[8] = endpoint: median tumor weight (est.), dose: 400.0 mg/kg/injection, schedule: Q07DX002 (ip), vehicle: saline with Tween-80
[9] = endpoint: median tumor weight (est.), dose: 200.0 mg/kg/injection, schedule: Q07DX002 (ip), vehicle: saline
[10] = endpoint: median tumor weight (est.), dose: 400.0 mg/kg/injection, schedule: Q07DX002 (ip), vehicle: saline
[11] = endpoint: median tumor weight (est.), dose: 12.5 mg/kg/injection, schedule: Q07DX002 (ip), vehicle: saline
[12] = endpoint: median tumor weight (est.), dose: 25.0 mg/kg/injection, schedule: Q07DX002 (ip), vehicle: saline
[13] = endpoint: median tumor weight (est.), dose: 50.0 mg/kg/injection, schedule: Q07DX002 (ip), vehicle: saline
[14] = endpoint: median tumor weight (est.), dose: 100.0 mg/kg/injection, schedule: Q07DX002 (ip), vehicle: saline
[15] = endpoint: median tumor weight (est.), dose: 400.0 mg/kg/injection, schedule: Q07DX002 (ip), vehicle: Klucel (hydroxypropylcellulose) (HPC)

In the case of `CCCC(=O)OC1C=C2N3C(=O)C4CC56C(=CC(OC(C)=O)C7OC75)N4C(=O)C3CC26C2OC12` (stereo unspecified), the T/C (endpoint: median tumor weight (est.), dose: 1.25 mg/kg/injection, schedule: Q07DX002 (ip), vehicle: Klucel (hydroxypropylcellulose) (HPC)) is reported as 111 % of control, the T/C (endpoint: median tumor weight (est.), dose: 2.5 mg/kg/injection, schedule: Q07DX002 (ip), vehicle: Klucel (hydroxypropylcellulose) (HPC)) is reported as 92 % of control and the T/C (endpoint: median tumor weight (est.), dose: 5.0 mg/kg/injection, schedule: Q07DX002 (ip), vehicle: Klucel (hydroxypropylcellulose) (HPC)) is reported as 102 % of control. The T/C (endpoint: median tumor weight (est.), dose: 10.0 mg/kg/injection, schedule: Q07DX002 (ip), vehicle: Klucel (hydroxypropylcellulose) (HPC)) was 76 % of control.

With `COC(=O)[C@@]12OC[C@]34[C@H]([C@@H](O)[C@@H]1O)[C@@]1(C)CC(=O)C(O)=C(C)[C@@H]1C[C@H]3OC(=O)[C@H](OC(=O)/C=C(\C)C(C)C)[C@@H]24` the T/C (endpoint: median tumor weight (est.), dose: 0.25 mg/kg/injection, schedule: Q07DX003 (ip), vehicle: other) was 72 % of control and the T/C (endpoint: median tumor weight (est.), dose: 0.5 mg/kg/injection, schedule: Q07DX003 (ip), vehicle: other) was 98 % of control.

With `CC(C)[NH-].CC(C)[NH-].O.O.[Cl][Pt+2][Cl]` the T/C (endpoint: median tumor weight (est.), dose: 3.12 mg/kg/injection, schedule: Q07DX003 (ip), vehicle: dextrose) was 90 % of control, the T/C (endpoint: median tumor weight (est.), dose: 6.25 mg/kg/injection, schedule: Q07DX002 (ip), vehicle: dextrose) was 41 % of control and the T/C (endpoint: median tumor weight (est.), dose: 12.5 mg/kg/injection, schedule: Q07DX002 (ip), vehicle: dextrose) was 81 % of control. The T/C (endpoint: median tumor weight (est.), dose: 25.0 mg/kg/injection, schedule: Q07DX002 (ip), vehicle: dextrose) was 39 % of control and the T/C (endpoint: median tumor weight (est.), dose: 25.0 mg/kg/injection, schedule: Q07DX003 (ip), vehicle: dextrose) was 52 % of control.

With `CN(C)C(=O)c1cccc(COc2ccc(N3C(N)=NC(N)=NC3(C)C)cc2Cl)c1` the T/C (endpoint: median tumor weight (est.), dose: 32.0 mg/kg/injection, schedule: Q07DX003 (ip), vehicle: saline) was 87 % of control and 98 % of control, the T/C (endpoint: median tumor weight (est.), dose: 64.0 mg/kg/injection, schedule: Q07DX003 (ip), vehicle: saline) was 50 % of control and the T/C (endpoint: median tumor weight (est.), dose: 128.0 mg/kg/injection, schedule: Q07DX003 (ip), vehicle: saline) was 66 % of control. For the same compound, the T/C (endpoint: median tumor weight (est.), dose: 256.0 mg/kg/injection, schedule: Q07DX003 (ip), vehicle: saline) was 59 % of control.

With `CCN(CC)CCOC(=O)Cc1cc(OC)cc2c(=O)cc(-c3ccccc3)oc12` the T/C [1] was 65 % of control, the T/C [2] was 82 % of control and the T/C [3] was 56 % of control. For the same compound, the T/C [4] was 111 % of control and the T/C [5] was 104 % of control.

`Nc1ccc2nc3c4ccccc4c(O)n3nc2c1` was tested, and the T/C [6] was 83 % of control, the T/C [7] was 101 % of control and the T/C (endpoint: median tumor weight (est.), dose: 200.0 mg/kg/injection, schedule: Q07DX002 (ip), vehicle: saline with Tween-80) was 94 % of control. The T/C [8] was 98 % of control.

For `Cc1cn(C2CC(F)C(CO)O2)c(=O)[nH]c1=O` (stereo unspecified), the T/C (endpoint: median tumor weight (est.), dose: 50.0 mg/kg/injection, schedule: Q01DX001 (ip), vehicle: Klucel (hydroxypropylcellulose) (HPC)) was 204 % of control, the T/C (endpoint: median tumor weight (est.), dose: 100.0 mg/kg/injection, schedule: Q01DX001 (ip), vehicle: Klucel (hydroxypropylcellulose) (HPC)) was 193 % of control and the T/C (endpoint: median tumor weight (est.), dose: 200.0 mg/kg/injection, schedule: Q01DX001 (ip), vehicle: Klucel (hydroxypropylcellulose) (HPC)) was 182 % of control. For the same compound, the T/C [9] was 119 % of control, the T/C (endpoint: median tumor weight (est.), dose: 400.0 mg/kg/injection, schedule: Q01DX001 (ip), vehicle: Klucel (hydroxypropylcellulose) (HPC)) was 165 % of control and the T/C [10] was 103 % of control. For the same compound, the T/C (endpoint: median tumor weight (est.), dose: 800.0 mg/kg/injection, schedule: Q07DX002 (ip), vehicle: saline) was 117 % of control and the T/C (endpoint: median tumor weight (est.), dose: 1600.0 mg/kg/injection, schedule: Q07DX002 (ip), vehicle: saline) was 100 % of control.

For `COc1cccc(-c2cc(=O)c3cccc(CC(=O)O)c3o2)c1`, the T/C [11] was 88 % of control, the T/C [12] was 97 % of control and the T/C [13] was 110 % of control. The T/C [14] was 33 % of control.

`C/C=C/C1=CC(=O)C(O)C1O` (stereo unspecified) was tested, and the T/C (endpoint: median tumor weight (est.), dose: 90.0 mg/kg/injection, schedule: Q07DX002 (ip), vehicle: water) was 75 % of control and the T/C (endpoint: median tumor weight (est.), dose: 180.0 mg/kg/injection, schedule: Q07DX002 (ip), vehicle: water) was 170 % of control.

For `COc1cc(OC)c(OC)cc1/C=C\c1ccnc2ccccc12`, the T/C [1] was 93 % of control, the T/C [2] was 120 % of control and the T/C [3] was 160 % of control and 171 % of control. For the same compound, the T/C [4] was 85 % of control and 97 % of control and the T/C [15] was 120 % of control.

For `COc1ccc2c(c1)CCn1c(C)c(COC(=O)NC(C)C)c(COC(=O)NC(C)C)c1-2`, the T/C (endpoint: median tumor weight (est.), dose: 6.25 mg/kg/injection, schedule: Q07DX002 (ip), vehicle: distilled water + Tween-80) was 76 % of control, the T/C (endpoint: median tumor weight (est.), dose: 12.5 mg/kg/injection, schedule: Q07DX002 (ip), vehicle: distilled water + Tween-80) was 102 % of control and the T/C (endpoint: median tumor weight (est.), dose: 25.0 mg/kg/injection, schedule: Q07DX002 (ip), vehicle: distilled water + Tween-80) was 97 % of control. For the same compound, the T/C (endpoint: median tumor weight (est.), dose: 50.0 mg/kg/injection, schedule: Q07DX002 (ip), vehicle: distilled water + Tween-80) was 65 % of control and the T/C (endpoint: median tumor weight (est.), dose: 100.0 mg/kg/injection, schedule: Q07DX002 (ip), vehicle: distilled water + Tween-80) was 48 % of control.

With `O=S(=O)(N=N/C=C1\C=CC=CN1O)c1cccs1` the T/C (endpoint: median tumor weight (est.), dose: 12.5 mg/kg/injection, schedule: Q07DX002 (ip), vehicle: saline with Tween-80) was 85 % of control, the T/C (endpoint: median tumor weight (est.), dose: 25.0 mg/kg/injection, schedule: Q07DX002 (ip), vehicle: saline with Tween-80) was 108 % of control and 98 % of control and the T/C [6] was 92 % of control and 100 % of control. The T/C [7] was 84 % of control and 99 % of control and the T/C [8] was 67 % of control.

In the case of `COC(OC(CO)C(O)S(=O)(=O)O)C(O)S(=O)(=O)O` (stereo unspecified), the T/C [11] is reported as 113 % of control, the T/C (endpoint: median tumor weight (est.), dose: 12.5 mg/kg/injection, schedule: Q07DX003 (ip), vehicle: saline) is reported as 123 % of control and the T/C [12] is reported as 108 % of control. For the same compound, the T/C (endpoint: median tumor weight (est.), dose: 25.0 mg/kg/injection, schedule: Q07DX003 (ip), vehicle: saline) was 100 % of control, the T/C [13] was 123 % of control and 105 % of control and the T/C (endpoint: median tumor weight (est.), dose: 50.0 mg/kg/injection, schedule: Q07DX003 (ip), vehicle: saline) was 97 % of control. The T/C [14] was 95 % of control and 105 % of control, the T/C (endpoint: median tumor weight (est.), dose: 100.0 mg/kg/injection, schedule: Q07DX003 (ip), vehicle: saline) was 110 % of control and the T/C [9] was 80 % of control and 105 % of control. For the same compound, the T/C (endpoint: median tumor weight (est.), dose: 200.0 mg/kg/injection, schedule: Q07DX003 (ip), vehicle: saline) was 98 % of control, the T/C [10] was 85 % of control and 86 % of control and the T/C (endpoint: median tumor weight (est.), dose: 400.0 mg/kg/injection, schedule: Q07DX003 (ip), vehicle: saline) was 50 % of control.

For `CC(C)CCC[C@@H](C)[C@H]1CC[C@H]2[C@@H]3CC=C4C[C@@H](OC(=O)Cc5ccc(N(CCCl)CCCl)cc5)CC[C@]4(C)[C@H]3CC[C@]12C`, the T/C [2] was 85 % of control, the T/C [3] was 111 % of control and the T/C [4] was 103 % of control. The T/C [5] was 103 % of control, the T/C [15] was 77 % of control and the T/C (endpoint: median tumor weight (est.), dose: 800.0 mg/kg/injection, schedule: Q07DX002 (ip), vehicle: Klucel (hydroxypropylcellulose) (HPC)) was 82 % of control.

In the case of `CC(=O)Nc1ccc(/C=N/NC(N)=S)cc1`, the T/C [4] is reported as 117 % of control and 98 % of control, the T/C [15] is reported as 98 % of control and the T/C (endpoint: median tumor weight (est.), dose: 450.0 mg/kg/injection, schedule: Q07DX002 (ip), vehicle: saline with Tween-80) is reported as 86 % of control. The T/C (endpoint: median tumor weight (est.), dose: 900.0 mg/kg/injection, schedule: Q07DX002 (ip), vehicle: saline with Tween-80) was 57 % of control and the T/C (endpoint: median tumor weight (est.), dose: 1800.0 mg/kg/injection, schedule: Q07DX002 (ip), vehicle: saline with Tween-80) was 119 % of control.

With `[Cl][Sn]([c]1ccccc1)[c]1ccccc1` the T/C (endpoint: median tumor weight (est.), dose: 6.25 mg/kg/injection, schedule: Q07DX002 (ip), vehicle: saline) was 113 % of control, the T/C [11] was 108 % of control and the T/C (endpoint: median tumor weight (est.), dose: 12.5 mg/kg/injection, schedule: Q09DX002 (ip), vehicle: saline) was 95 % of control. For the same compound, the T/C [12] was 89 % of control and the T/C (endpoint: median tumor weight (est.), dose: 25.0 mg/kg/injection, schedule: Q09DX002 (ip), vehicle: saline) was 93 % of control.

With `COC1CC(NC(=O)N(CCCl)N=O)C(O)C(CO)O1` (stereo unspecified) the T/C (endpoint: median tumor weight change, dose: 10.0 mg/kg/injection, schedule: Q04DX003 (oral), vehicle: saline) was 5 % of control.

For `Cn1c(=O)c2ncnnc2n(C)c1=O`, the T/C (endpoint: median tumor weight (est.), dose: 3.12 mg/kg/injection, schedule: Q07DX002 (ip), vehicle: Klucel (hydroxypropylcellulose) (HPC)) was 75 % of control, the T/C (endpoint: median tumor weight (est.), dose: 6.25 mg/kg/injection, schedule: Q07DX002 (ip), vehicle: Klucel (hydroxypropylcellulose) (HPC)) was 84 % of control and the T/C [1] was 78 % of control. For the same compound, the T/C [2] was 62 % of control.
